Assays:
Assay type in all cases: functional, T cell line
[1] = Induction of anti-CD3/CD28 antibodies-stimulated human T cell activation at 4 uM assessed fold increase in IL-2 secretion measured by ELISA assay
[2] = Induction of anti-CD3/CD28 antibodies-stimulated human T cell activation at 1 uM assessed fold increase in IL-2 secretion measured by ELISA assay
[3] = Induction of anti-CD3/CD28 antibodies-stimulated human T cell activation at 0.3 uM assessed fold increase in IL-2 secretion measured by ELISA assay
[4] = Induction of anti-CD3 antibodies-stimulated human T cell activation at 8 uM assessed fold increase in IL-2 secretion measured by ELISA assay; note: reference of the scale not given here
[5] = Induction of anti-CD3 antibodies-stimulated human T cell activation at 1 uM assessed fold increase in IL-2 secretion measured by ELISA assay; note: reference of the scale not given here
[6] = Induction of anti-CD3/CD28 antibodies-stimulated human T cell activation at 4 uM assessed fold increase in CD25 expression measured by ELISA assay
[7] = Induction of anti-CD3/CD28 antibodies-stimulated human T cell activation at 1 uM assessed fold increase in CD25 expression measured by ELISA assay
[8] = Induction of anti-CD3/CD28 antibodies-stimulated human T cell activation at 0.3 uM assessed fold increase in CD25 expression measured by ELISA assay
[9] = Induction of anti-CD3 antibodies-stimulated human T cell activation at 8 uM assessed fold increase in CD25 expression measured by ELISA assay; note: reference of the scale not given here
[10] = Induction of anti-CD3 antibodies-stimulated human T cell activation at 1 uM assessed fold increase in CD25 expression measured by ELISA assay; note: reference of the scale not given here

Structure (SMILES) | fold change (FC) [1] | fold change (FC) [2] | fold change (FC) [3] | fold change (FC) [4] | fold change (FC) [5] | fold change (FC) [6] | fold change (FC) [7] | fold change (FC) [8] | fold change (FC) [9] | fold change (FC) [10]
Cc1cccc2nc(C(=O)Nc3cccc([C@H](C)Sc4nncn4C)c3)ccc12 | >=7.5 | 5 | 2.51 | 0.101 | <=0.05 | 1.01 | 1.01 | 1.01 | 0.801 | 0.801
Cn1cnnc1[C@@H](F)[C@](C)(F)c1cccc(N2Cc3c(cccc3C(F)(F)F)C2=O)c1 (single isomer, unassigned) | 1.01 | 1.01 | 1.01 | 0.051 | <=0.05 | 1.01 | 1.01 | 1.01 | 0.601 | <=0.6
C[C@H](Sc1nncn1C)c1cccc(N2Cc3c(ccnc3Cl)C2=O)c1 | 2.51 | <=1 | 1.01 | 0.101 | <=0.05 | >=1.76 | 1.01 | 1.51 | 0.601 | <=0.6
Cn1cnnc1[C@@H]1C[C@@H]1c1cccc(NC(=O)c2nc3c(C(F)(F)F)cccc3[nH]2)c1 | 2.51 | 1.01 | 1.01 | >=0.201 | 0.101 | 1.01 | 1.01 | 1.01 | 0.801 | 0.601
Cn1cnnc1[C@H]1CC[C@H]1c1cccc(N2Cc3c(cccc3C(F)(F)F)C2=O)c1 (racemic) | 1.01 | 1.01 | <=1 | 0.101 | <=0.05 | 1.01 | <=1 | <=1 | <=0.6 | <=0.6
CNS(=O)(=O)c1cc(C(=O)Nc2cccc([C@H](C)Cc3nncn3C)c2)nc(C(F)(F)F)c1 | <=1 | 1.01 | 1.01 | >=0.201 | 0.151 | 1.01 | 1.01 | 1.01 | >=1.001 | 0.801
C[C@H](Cc1nncn1C)c1cccc(N2Cc3c(ccnc3C(F)(F)F)C2=O)c1 | 5 | 2.51 | 1.01 | >=0.201 | 0.101 | 1.01 | 1.01 | 1.01 | >=1.001 | 0.801
Cc1nc2cc([C@H](C)Sc3nncn3C)cc(NC(=O)c3cccc(C(F)(F)F)n3)c2o1 | >=7.5 | 5 | 2.51 | >=0.201 | <=0.05 | >=1.76 | 1.51 | 1.31 | >=1.001 | 0.601
Cc1ccc(C(=O)Nc2cccc([C@H](C)Cc3nnc[nH]3)c2)nc1C1CC1 | 1.01 | 1.01 | 1.01 | <=0.05 | <=0.05 | >=1.76 | 1.51 | 1.51 | <=0.6 | <=0.6
Cc1conc1C[C@@H](C)c1cccc(N2Cc3c(cccc3C(F)(F)F)C2=O)c1 | 1.01 | <=1 | <=1 | 0.151 | 0.051 | 1.01 | <=1 | 1.01 | 0.801 | 0.601
Cn1cnnc1C(F)(F)[C@](C)(F)c1cccc(N2Cc3c(cc(CN4CC(C#N)C4)cc3C(F)(F)F)C2=O)c1 | 5 | 2.51 | 1.01 | 0.101 | 0.051 | 1.01 | 1.01 | 1.01 | >=1.001 | 0.801
C[C@H](Cc1nncn1C)c1cc(OCCO)nc(N2Cc3c(cccc3C(F)(F)F)C2=O)c1 | 2.51 | 1.01 | 1.01 | >=0.201 | 0.051 | 1.31 | 1.01 | 1.01 | >=1.001 | 0.601
C[C@H](Cc1nncn1C)c1cccc(N2Cc3c(ccnc3C3CCC3)C2=O)c1 | 5 | 2.51 | 1.01 | 0.101 | 0.051 | 1.01 | 1.01 | <=1 | >=1.001 | >=1.001
Cn1cnnc1C(F)(F)[C@](C)(F)c1cccc(NC(=O)c2nc3c(C(F)(F)F)cccc3[nH]2)c1 | 2.51 | 1.01 | 1.01 | 0.151 | 0.051 | 1.01 | 1.01 | 1.01 | 0.601 | 0.601
C[C@H](Cc1nncn1C)c1cc(NC2CCOC2)nc(N2Cc3c(cccc3C(F)(F)F)C2=O)c1 (single isomer, unassigned) | 1.01 | 1.01 | 1.01 | 0.151 | 0.051 | 1.01 | 1.01 | <=1 | 0.801 | 0.601
Cn1cnnc1CC(c1cccc(N2Cc3c(cccc3C(F)(F)F)C2=O)c1)C(F)(F)F (stereo not given) | 1.01 | <=1 | <=1 | 0.151 | 0.101 | 1.01 | 1.01 | 1.01 | 0.801 | 0.801
C[C@H](Sc1nncn1C)c1ccnc(NC(=O)c2cc(Cl)cc(C(F)(F)F)n2)c1 | <=1 | 1.01 | 1.01 | <=0.05 | <=0.05 | <=1 | 1.01 | 1.01 | 0.601 | <=0.6
C[C@@H](c1cccc(N2Cc3c(cccc3C(F)(F)F)C2=O)c1)[C@H](F)c1nncn1C (relative stereo) | 2.51 | 2.51 | 2.51 | >=0.201 | 0.101 | 1.01 | 1.01 | 1.01 | 0.801 | 0.601
C[C@H](Cc1nncn1C)c1cccc(N2Cc3c(cc(C4CC4)nc3C3CC3)C2=O)c1 | 5 | 1.01 | 1.01 | >=0.201 | 0.051 | >=1.76 | 1.01 | 1.01 | 0.801 | 0.601
C[C@H](Cc1nncn1C)c1cccc(N2Cc3c(Br)cccc3C2=O)c1 | >=7.5 | 5 | 2.51 | >=0.201 | >=0.201 | 1.51 | 1.31 | 1.01 | 0.801 | 0.801
Cn1cnnc1C[C@H](c1cccc(N2Cc3c(cccc3C(F)(F)F)C2=O)c1)C(F)(F)F | 1.01 | 1.01 | 1.01 | 0.101 | 0.051 | 1.01 | 1.01 | 1.01 | 0.801 | 0.601
C[C@H](Sc1nncn1C)c1cccc(NC(=O)c2cc(C(F)(F)F)cc(C3CC3)n2)c1 | 1.01 | <=1 | <=1 | <=0.05 | <=0.05 | 1.31 | 1.01 | 1.01 | <=0.6 | <=0.6

— ChEMBL document CHEMBL5050844 (2019)
